{"source": "paper PMC9150124", "about": "“Design of a Potent, Selective, and Brain-Penetrant Inhibitor of Wnt-Deactivating Enzyme Notum by Optimization of a Crystallographic Fragment Hit” (Journal of Medicinal Chemistry, 2022)", "assay_in_all_cases": "SelectScreen kinase profiling, SSBK LanthaScreen Binding SP Technology", "key": {"[1]": {"target": "kinase named in conditions (Homo sapiens, UniProt P00519, Q252H)", "details": "ABL1 Q252H, 10 μM", "experimental": "(§1) Kinase selectivity screening was performed by Thermo Fisher Scientific (Paisley, U.K.) in their SelectScreen Biochemical Kinase Profiling Service. Assay information and data are presented in the Supporting Information.\n(§2) Kinase selectivity screening was performed by ThermoFisher Scientific (Paisley, U.K.) in their SelectScreenTM\n(§3) Biochemical Kinase Profiling service .\n(§4) Illustration reproduced courtesy of Cell Signaling technology, Inc.\n(§5) (B) Illustration of phylogenetic tree of kinases screened."}, "[2]": {"target": "kinase named in conditions (Homo sapiens, UniProt P10721, A829P)", "details": "KIT A829P, 10 μM", "experimental": "as §1, §2, §3, §4, §5"}, "[3]": {"target": "kinase named in conditions (Homo sapiens, UniProt P10721, D816H)", "details": "KIT D816H, 10 μM", "experimental": "as §1, §2, §3, §4, §5"}, "[4]": {"target": "kinase named in conditions (Homo sapiens, UniProt P10721, N822K)", "details": "KIT N822K, 10 μM", "experimental": "as §1, §2, §3, §4, §5"}, "[5]": {"target": "kinase named in conditions (Homo sapiens, UniProt P10721, T670E)", "details": "KIT T670E, 10 μM", "experimental": "as §1, §2, §3, §4, §5"}, "[6]": {"target": "kinase named in conditions (Homo sapiens, UniProt P19525)", "details": "EIF2AK2 (PKR), 10 μM", "experimental": "as §1, §2, §3, §4, §5"}, "[7]": {"target": "kinase named in conditions (Homo sapiens, UniProt P22612)", "details": "PRKACG (PRKAC gamma), 10 μM", "experimental": "as §1, §2, §3, §4, §5"}, "[8]": {"target": "kinase named in conditions (Homo sapiens, UniProt P24941)", "experimental": "as §1, §2, §3, §4, §5"}, "[9]": {"target": "kinase named in conditions (Homo sapiens, UniProt P27037)", "details": "ACVR2A, 10 μM", "experimental": "as §1, §2, §3, §4, §5"}, "[10]": {"target": "kinase named in conditions (Homo sapiens, UniProt P29320)", "details": "EPHA3, 10 μM", "experimental": "as §1, §2, §3, §4, §5"}, "[11]": {"target": "kinase named in conditions (Homo sapiens, UniProt P30530, R499C)", "details": "AXL R499C, 10 μM", "experimental": "as §1, §2, §3, §4, §5"}, "[12]": {"target": "kinase named in conditions (Homo sapiens, UniProt P36507)", "details": "MAP2K2 (MEK2), 10 μM", "experimental": "as §1, §2, §3, §4, §5"}, "[13]": {"target": "kinase named in conditions (Homo sapiens, UniProt P36894)", "details": "BMPR1A (ALK3), 10 μM", "experimental": "as §1, §2, §3, §4, §5"}, "[14]": {"target": "kinase named in conditions (Homo sapiens, UniProt P45985)", "sequence (P45985 whole entry)": "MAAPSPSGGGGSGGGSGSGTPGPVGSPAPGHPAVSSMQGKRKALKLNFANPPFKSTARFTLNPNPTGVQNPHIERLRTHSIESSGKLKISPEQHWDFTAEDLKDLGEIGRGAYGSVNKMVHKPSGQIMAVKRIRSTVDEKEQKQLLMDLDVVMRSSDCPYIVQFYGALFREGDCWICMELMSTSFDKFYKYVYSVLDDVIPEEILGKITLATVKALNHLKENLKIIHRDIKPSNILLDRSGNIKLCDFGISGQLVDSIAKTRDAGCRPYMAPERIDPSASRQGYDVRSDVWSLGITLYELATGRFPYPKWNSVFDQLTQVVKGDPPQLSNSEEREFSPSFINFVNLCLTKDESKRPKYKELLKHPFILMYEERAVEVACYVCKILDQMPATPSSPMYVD", "details": "MAP2K4 (MEK4), 10 μM", "experimental": "as §1, §2, §3, §4, §5"}, "[15]": {"target": "kinase named in conditions (Homo sapiens, UniProt P49336)", "details": "CDK8/cyclin C, 10 μM", "experimental": "as §1, §2, §3, §4, §5"}, "[16]": {"target": "kinase named in conditions (Homo sapiens, UniProt P57058)", "details": "HUNK, 10 μM", "experimental": "as §1, §2, §3, §4, §5"}, "[17]": {"target": "kinase named in conditions (Homo sapiens, UniProt Q02763, R849W)", "details": "TEK (TIE2) R849W, 10 μM", "experimental": "as §1, §2, §3, §4, §5"}, "[18]": {"target": "kinase named in conditions (Homo sapiens, UniProt Q04771)", "details": "ACVR1 (ALK2), 10 μM", "experimental": "as §1, §2, §3, §4, §5"}, "[19]": {"target": "kinase named in conditions (Homo sapiens, UniProt Q13131)", "sequence (Q13131 whole entry)": "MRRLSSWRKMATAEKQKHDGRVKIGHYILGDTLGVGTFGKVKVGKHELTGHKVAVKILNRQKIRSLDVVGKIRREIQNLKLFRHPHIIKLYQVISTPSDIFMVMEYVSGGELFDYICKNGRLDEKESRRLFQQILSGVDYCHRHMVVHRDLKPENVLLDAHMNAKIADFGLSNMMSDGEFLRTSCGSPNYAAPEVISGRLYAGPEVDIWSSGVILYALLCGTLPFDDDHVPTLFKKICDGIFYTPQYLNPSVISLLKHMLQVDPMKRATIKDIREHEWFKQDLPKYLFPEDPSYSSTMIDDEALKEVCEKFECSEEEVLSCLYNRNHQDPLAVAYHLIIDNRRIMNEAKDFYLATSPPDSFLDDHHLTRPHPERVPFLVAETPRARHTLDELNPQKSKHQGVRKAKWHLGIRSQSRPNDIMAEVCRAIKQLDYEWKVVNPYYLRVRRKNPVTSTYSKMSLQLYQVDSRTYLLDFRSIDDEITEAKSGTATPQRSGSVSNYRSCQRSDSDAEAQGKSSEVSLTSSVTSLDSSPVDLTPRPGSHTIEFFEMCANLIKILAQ", "details": "10 μM", "experimental": "as §1, §2, §3, §4, §5"}, "[20]": {"target": "kinase named in conditions (Homo sapiens, UniProt Q13555)", "details": "CAMK2G (CaMKII gamma), 10 μM", "experimental": "as §1, §2, §3, §4, §5"}, "[21]": {"target": "kinase named in conditions (Homo sapiens, UniProt Q16832)", "details": "DDR2, 10 μM", "experimental": "as §1, §2, §3, §4, §5"}, "[22]": {"target": "kinase named in conditions (Homo sapiens, UniProt Q86SG6)", "details": "NEK8, 10 μM", "experimental": "as §1, §2, §3, §4, §5"}, "[23]": {"target": "kinase named in conditions (Homo sapiens, UniProt Q86UE8)", "details": "TLK2, 10 μM", "experimental": "as §1, §2, §3, §4, §5"}, "[24]": {"target": "kinase named in conditions (Homo sapiens, UniProt Q8IYT8)", "details": "ULK2, 10 μM", "experimental": "as §1, §2, §3, §4, §5"}, "[25]": {"target": "kinase named in conditions (Homo sapiens, UniProt Q8NEV4)", "sequence (Q8NEV4 whole entry)": "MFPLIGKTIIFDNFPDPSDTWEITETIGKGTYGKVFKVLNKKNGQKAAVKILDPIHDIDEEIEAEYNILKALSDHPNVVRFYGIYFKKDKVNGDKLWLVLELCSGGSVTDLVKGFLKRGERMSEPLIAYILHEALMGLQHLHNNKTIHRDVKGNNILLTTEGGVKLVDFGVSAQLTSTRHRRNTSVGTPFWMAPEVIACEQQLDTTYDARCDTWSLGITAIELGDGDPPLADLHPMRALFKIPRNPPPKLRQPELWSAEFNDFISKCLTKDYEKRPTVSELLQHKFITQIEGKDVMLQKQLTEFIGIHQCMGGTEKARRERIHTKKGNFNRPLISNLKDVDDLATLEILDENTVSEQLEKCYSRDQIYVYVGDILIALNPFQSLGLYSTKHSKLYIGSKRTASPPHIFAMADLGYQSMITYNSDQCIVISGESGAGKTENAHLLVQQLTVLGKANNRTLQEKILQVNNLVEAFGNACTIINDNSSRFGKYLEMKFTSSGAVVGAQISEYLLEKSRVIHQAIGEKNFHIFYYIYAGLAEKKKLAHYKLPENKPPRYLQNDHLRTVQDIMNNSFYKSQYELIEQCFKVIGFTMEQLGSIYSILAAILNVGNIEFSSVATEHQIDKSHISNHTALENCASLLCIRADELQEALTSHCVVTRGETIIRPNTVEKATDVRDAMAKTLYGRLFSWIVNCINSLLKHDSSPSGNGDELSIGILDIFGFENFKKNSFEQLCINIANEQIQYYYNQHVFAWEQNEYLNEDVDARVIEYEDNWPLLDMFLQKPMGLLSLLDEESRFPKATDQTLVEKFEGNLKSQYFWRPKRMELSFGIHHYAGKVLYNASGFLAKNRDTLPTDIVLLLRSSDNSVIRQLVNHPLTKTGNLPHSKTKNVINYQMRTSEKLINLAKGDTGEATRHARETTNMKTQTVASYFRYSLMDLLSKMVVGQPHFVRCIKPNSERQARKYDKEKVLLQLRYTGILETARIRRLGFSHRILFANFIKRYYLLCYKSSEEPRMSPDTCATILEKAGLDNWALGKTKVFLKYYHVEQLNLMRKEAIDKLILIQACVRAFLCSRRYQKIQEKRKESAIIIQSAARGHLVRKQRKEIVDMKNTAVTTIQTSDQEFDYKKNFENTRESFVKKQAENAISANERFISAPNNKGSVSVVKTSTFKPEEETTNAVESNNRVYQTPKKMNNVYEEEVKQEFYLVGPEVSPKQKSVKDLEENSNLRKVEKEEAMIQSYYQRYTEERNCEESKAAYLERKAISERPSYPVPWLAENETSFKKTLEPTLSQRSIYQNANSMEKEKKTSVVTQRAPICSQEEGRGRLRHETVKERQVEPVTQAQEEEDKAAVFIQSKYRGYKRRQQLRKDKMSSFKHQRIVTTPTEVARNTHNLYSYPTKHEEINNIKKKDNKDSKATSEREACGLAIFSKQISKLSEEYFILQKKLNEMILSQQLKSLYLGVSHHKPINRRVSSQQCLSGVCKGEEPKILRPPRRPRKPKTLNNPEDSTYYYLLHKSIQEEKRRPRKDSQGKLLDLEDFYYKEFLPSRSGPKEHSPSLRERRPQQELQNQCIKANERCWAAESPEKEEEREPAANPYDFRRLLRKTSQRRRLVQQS", "details": "MYO3A (MYO3 alpha), 10 μM", "experimental": "as §1, §2, §3, §4, §5"}, "[26]": {"target": "kinase named in conditions (Homo sapiens, UniProt Q8NI60)", "details": "ADCK3, 10 μM", "experimental": "as §1, §2, §3, §4, §5"}, "[27]": {"target": "kinase named in conditions (Homo sapiens, UniProt Q96RR4)", "details": "CAMKK2 (CaMKK beta), 10 μM", "experimental": "as §1, §2, §3, §4, §5"}, "[28]": {"target": "kinase named in conditions (Homo sapiens, UniProt Q99558)", "details": "MAP3K14 (NIK), 10 μM", "experimental": "as §1, §2, §3, §4, §5"}, "[29]": {"target": "kinase named in conditions (Homo sapiens, UniProt Q9BYP7)", "details": "WNK3, 10 μM", "experimental": "as §1, §2, §3, §4, §5"}, "[30]": {"target": "kinase named in conditions (Homo sapiens, UniProt Q9BYT3)", "details": "STK33, 10 μM", "experimental": "as §1, §2, §3, §4, §5"}, "[31]": {"target": "kinase named in conditions (Homo sapiens, UniProt Q9H093)", "details": "NUAK2, 10 μM", "experimental": "as §1, §2, §3, §4, §5"}, "[32]": {"target": "kinase named in conditions (Homo sapiens, UniProt Q9H4A3)", "sequence (Q9H4A3 whole entry)": "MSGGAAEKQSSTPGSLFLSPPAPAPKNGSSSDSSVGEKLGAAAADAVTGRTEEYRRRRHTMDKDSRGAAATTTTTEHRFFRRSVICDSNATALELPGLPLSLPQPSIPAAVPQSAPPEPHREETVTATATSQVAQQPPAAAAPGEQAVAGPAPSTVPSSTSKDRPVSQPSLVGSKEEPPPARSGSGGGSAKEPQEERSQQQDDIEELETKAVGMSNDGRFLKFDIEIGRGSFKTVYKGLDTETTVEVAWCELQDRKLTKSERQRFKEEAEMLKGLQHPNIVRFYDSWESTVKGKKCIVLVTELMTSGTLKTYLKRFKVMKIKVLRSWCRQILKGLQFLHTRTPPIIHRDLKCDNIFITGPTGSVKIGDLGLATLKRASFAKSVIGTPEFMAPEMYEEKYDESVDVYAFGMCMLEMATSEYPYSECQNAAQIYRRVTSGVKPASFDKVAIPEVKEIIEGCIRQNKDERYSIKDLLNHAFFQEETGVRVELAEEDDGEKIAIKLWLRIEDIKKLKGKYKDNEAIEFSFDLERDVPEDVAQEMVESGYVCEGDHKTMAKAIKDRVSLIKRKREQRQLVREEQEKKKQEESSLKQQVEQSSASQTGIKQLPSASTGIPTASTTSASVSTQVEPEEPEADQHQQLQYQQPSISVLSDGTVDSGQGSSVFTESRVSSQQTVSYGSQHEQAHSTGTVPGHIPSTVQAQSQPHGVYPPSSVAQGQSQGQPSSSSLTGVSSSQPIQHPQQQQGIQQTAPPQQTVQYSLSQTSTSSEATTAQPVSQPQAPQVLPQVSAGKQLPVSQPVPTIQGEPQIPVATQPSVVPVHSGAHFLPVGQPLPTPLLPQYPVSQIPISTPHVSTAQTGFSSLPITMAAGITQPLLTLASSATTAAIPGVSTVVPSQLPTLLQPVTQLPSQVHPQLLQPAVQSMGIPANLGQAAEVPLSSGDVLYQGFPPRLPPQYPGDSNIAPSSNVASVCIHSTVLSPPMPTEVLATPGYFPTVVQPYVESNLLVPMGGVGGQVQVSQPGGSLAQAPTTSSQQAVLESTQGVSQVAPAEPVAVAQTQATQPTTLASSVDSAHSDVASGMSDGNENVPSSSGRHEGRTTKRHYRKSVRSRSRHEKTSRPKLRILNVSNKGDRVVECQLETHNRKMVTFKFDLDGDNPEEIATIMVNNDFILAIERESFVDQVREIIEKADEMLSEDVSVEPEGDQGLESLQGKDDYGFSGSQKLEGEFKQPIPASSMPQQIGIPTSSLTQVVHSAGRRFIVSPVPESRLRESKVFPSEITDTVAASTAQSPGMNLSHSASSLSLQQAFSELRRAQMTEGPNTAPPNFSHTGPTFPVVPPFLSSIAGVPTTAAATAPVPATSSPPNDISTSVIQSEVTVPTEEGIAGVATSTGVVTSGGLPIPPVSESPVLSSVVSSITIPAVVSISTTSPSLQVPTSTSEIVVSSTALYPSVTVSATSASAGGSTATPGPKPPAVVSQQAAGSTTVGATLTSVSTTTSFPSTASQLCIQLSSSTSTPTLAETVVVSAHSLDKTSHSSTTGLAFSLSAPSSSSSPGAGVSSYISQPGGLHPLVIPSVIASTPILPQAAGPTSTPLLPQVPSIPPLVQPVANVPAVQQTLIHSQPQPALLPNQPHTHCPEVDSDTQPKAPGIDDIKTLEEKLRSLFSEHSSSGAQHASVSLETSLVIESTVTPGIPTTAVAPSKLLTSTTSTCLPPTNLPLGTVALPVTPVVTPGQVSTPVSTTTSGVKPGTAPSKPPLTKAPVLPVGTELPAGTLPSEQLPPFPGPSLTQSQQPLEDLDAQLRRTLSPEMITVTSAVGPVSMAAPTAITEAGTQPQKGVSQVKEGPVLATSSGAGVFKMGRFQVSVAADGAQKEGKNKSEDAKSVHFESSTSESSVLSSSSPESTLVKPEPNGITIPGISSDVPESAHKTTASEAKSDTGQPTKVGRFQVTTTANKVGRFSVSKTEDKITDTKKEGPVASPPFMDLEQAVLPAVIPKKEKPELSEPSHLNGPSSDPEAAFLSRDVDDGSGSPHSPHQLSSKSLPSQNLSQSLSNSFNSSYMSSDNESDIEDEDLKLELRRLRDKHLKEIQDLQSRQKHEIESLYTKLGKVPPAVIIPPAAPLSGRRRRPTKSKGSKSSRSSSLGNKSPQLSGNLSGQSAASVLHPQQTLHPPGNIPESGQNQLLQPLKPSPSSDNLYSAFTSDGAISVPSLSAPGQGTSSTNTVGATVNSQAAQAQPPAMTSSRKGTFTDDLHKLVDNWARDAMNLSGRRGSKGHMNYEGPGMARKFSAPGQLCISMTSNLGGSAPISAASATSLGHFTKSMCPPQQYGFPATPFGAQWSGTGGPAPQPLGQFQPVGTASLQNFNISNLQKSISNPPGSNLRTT", "details": "WNK1, 10 μM", "experimental": "as §1, §2, §3, §4, §5"}, "[33]": {"target": "kinase named in conditions (Homo sapiens, UniProt Q9UKI8)", "details": "TLK1, 10 μM", "experimental": "as §1, §2, §3, §4, §5"}, "[34]": {"target": "kinase named in conditions (Homo sapiens, UniProt Q9UPZ9)", "details": "ICK, 10 μM", "experimental": "as §1, §2, §3, §4, §5"}}}
{"smiles": "FC(F)(F)c1c(Cl)ccc(-n2ccnn2)c1Cl", "note": "[8l, 1-(2,4-Dichloro-3-(trifluoromethyl)phenyl)-1H-1,2,3-triazole]", "values": [{"measurement": "inhibition at 10 µM", "setting": "[1]", "result": 10, "unit": "%"}, {"measurement": "inhibition at 10 µM", "setting": "[2]", "result": -3, "unit": "%"}, {"measurement": "inhibition at 10 µM", "setting": "[3]", "result": -2, "unit": "%"}, {"measurement": "inhibition at 10 µM", "setting": "[4]", "result": -3, "unit": "%"}, {"measurement": "inhibition at 10 µM", "setting": "[5]", "result": 1, "unit": "%"}, {"measurement": "inhibition at 10 µM", "setting": "[6]", "result": 6, "unit": "%"}, {"measurement": "inhibition at 10 µM", "setting": "[7]", "result": 6, "unit": "%"}, {"measurement": "inhibition at 10 µM", "setting": "[8]; CDK2/cyclin A1, 10 μM", "result": 3, "unit": "%"}, {"measurement": "inhibition at 10 µM", "setting": "[8]; CDK2/cyclin E1, 10 μM", "result": -4, "unit": "%"}, {"measurement": "inhibition at 10 µM", "setting": "[8]; CDK2/cyclin O, 10 μM", "result": 7, "unit": "%"}, {"measurement": "inhibition at 10 µM", "setting": "[9]", "result": 4, "unit": "%"}, {"measurement": "inhibition at 10 µM", "setting": "[10]", "result": 7, "unit": "%"}, {"measurement": "inhibition at 10 µM", "setting": "[11]", "result": 5, "unit": "%"}, {"measurement": "inhibition at 10 µM", "setting": "[12]", "result": 5, "unit": "%"}, {"measurement": "inhibition at 10 µM", "setting": "[13]", "result": 6, "unit": "%"}, {"measurement": "inhibition at 10 µM", "setting": "[14]", "result": -2, "unit": "%"}, {"measurement": "inhibition at 10 µM", "setting": "[15]", "result": 18, "unit": "%"}, {"measurement": "inhibition at 10 µM", "setting": "[16]", "result": 1, "unit": "%"}, {"measurement": "inhibition at 10 µM", "setting": "[17]", "result": 19, "unit": "%"}, {"measurement": "inhibition at 10 µM", "setting": "[18]", "result": 12, "unit": "%"}, {"measurement": "inhibition at 10 µM", "setting": "[19]; AMPK (A1/B1/G2)", "result": -13, "unit": "%"}, {"measurement": "inhibition at 10 µM", "setting": "[19]; AMPK (A1/B1/G3)", "result": -4, "unit": "%"}, {"measurement": "inhibition at 10 µM", "setting": "[19]; AMPK (A1/B2/G1)", "result": 6, "unit": "%"}, {"measurement": "inhibition at 10 µM", "setting": "[20]", "result": 1, "unit": "%"}, {"measurement": "inhibition at 10 µM", "setting": "[21]", "result": -3, "unit": "%"}, {"measurement": "inhibition at 10 µM", "setting": "[22]", "result": 2, "unit": "%"}, {"measurement": "inhibition at 10 µM", "setting": "[23]", "result": 11, "unit": "%"}, {"measurement": "inhibition at 10 µM", "setting": "[24]", "result": 8, "unit": "%"}, {"measurement": "inhibition at 10 µM", "setting": "[25]", "result": -6, "unit": "%"}, {"measurement": "inhibition at 10 µM", "setting": "[26]", "result": 12, "unit": "%"}, {"measurement": "inhibition at 10 µM", "setting": "[27]", "result": -1, "unit": "%"}, {"measurement": "inhibition at 10 µM", "setting": "[28]", "result": 16, "unit": "%"}, {"measurement": "inhibition at 10 µM", "setting": "[29]", "result": -10, "unit": "%"}, {"measurement": "inhibition at 10 µM", "setting": "[30]", "result": 6, "unit": "%"}, {"measurement": "inhibition at 10 µM", "setting": "[31]", "result": 7, "unit": "%"}, {"measurement": "inhibition at 10 µM", "setting": "[32]", "result": 2, "unit": "%"}, {"measurement": "inhibition at 10 µM", "setting": "[33]", "result": 7, "unit": "%"}, {"measurement": "inhibition at 10 µM", "setting": "[34]", "result": -6, "unit": "%"}]}
